From paper PMC3166231 (Inorganic chemistry, 2010)
Counter-ions that a name gives are not always drawn. Like-named read-outs stand apart in the source and are kept apart here. Marks after values point to notes of the source that are not given here.

Tests used:
[1] = pH = 7.4, [Fe3+] = 1.0 × 10^−6 mol dm^−3, [L] = 1.0 × 10^−5 mol dm^−3, cited from earlier work
Literature Fe = format: binding; details: refs [19], [21]; for Δ1–2: difference K1 − K2 of cited stepwise constants; for Δ2–3: difference K2 − K3 of cited stepwise constants
[2] = cited from earlier work; for pFe: bidentate donor group, ref [17]–[20]; for K2 (proton independent stepwise formation constant): second ligand; for K3 (proton independent stepwise formation constant): third ligand
[3] = ref [14]; cited from earlier work

For `Cn1cccc(O)c1=O` [1-methyl-3-hydroxypyridin-2-one], the pFe ([1]; ref [63]) is given as 16 ^b.
In the case of `O=c1[nH]cccc1O` [3,2-HOPO], the “Δ1–2” value (Literature Fe) is given as 1.71, the “Δ2–3” value (Literature Fe) is given as 1.76 and the pFe [2] is given as 16.26. For the same molecule, the “K1 (proton independent stepwise formation constant)” value ([2]; iron complex, first ligand, ref [19], [21]) was 11.48, the “K2 (proton independent stepwise formation constant)” value ([2]; iron complex, ref [19], [21]) was 9.77 and the “K3 (proton independent stepwise formation constant)” value ([2]; iron complex, ref [19], [21]) was 8.01.
For `Oc1cccnc1O` [3-hydroxy-2-pyridinone], the “pKa of the 3-hydroxy-2-pyridinone donor group alone” value [3] is given as 8.66.
In the case of `O=C(O)c1ccc(-n2nc(-c3ccccc3O)nc2-c2ccccc2O)cc1` [Deferasirox, deferasirox], the pFe ([1]; ref [65]) is given as 23.5 ^d.
In the case of `Cc1c(O)c(=O)ccn1C` [Deferiprone, 1,2-dimethyl-3-hydroxy-4-pyridinone], the pFe ([1]; ref [64]) is listed as 19.4 ^c.
In the case of `CC(=O)N(O)CCCCCNC(=O)CCC(=O)N(O)CCCCCNC(=O)CCC(=O)N(O)CCCCCN` [Deferrioxamine B, desferrioxamine B mesylate], the pFe ([1]; ref [67]) is listed as 26.6 ^h.
In the case of `Oc1ccccc1O` [catechol], the “Δ1–2” value (Literature Fe) is given as 4.9, the “Δ2–3” value (Literature Fe) is given as 6.1 and the pFe [2] is given as 15.1. The “K2 (proton independent stepwise formation constant)” value ([2]; iron complex, ref [19], [21]) was 15.5 and the “K3 (proton independent stepwise formation constant)” value ([2]; iron complex, ref [19], [21]) was 9.4.
For “Transferrin: iron transport protein used as pFe comparison”, the pFe ([1]; ref [66]) is given as 23.6 ^e.
